{
  "source": "paper PMC13428274",
  "about": "(ACS infectious diseases, 2025)",
  "biological_target": "BlaR (Staphylococcus aureus, UniProt P18357)",
  "sequence (P18357 332-585)": "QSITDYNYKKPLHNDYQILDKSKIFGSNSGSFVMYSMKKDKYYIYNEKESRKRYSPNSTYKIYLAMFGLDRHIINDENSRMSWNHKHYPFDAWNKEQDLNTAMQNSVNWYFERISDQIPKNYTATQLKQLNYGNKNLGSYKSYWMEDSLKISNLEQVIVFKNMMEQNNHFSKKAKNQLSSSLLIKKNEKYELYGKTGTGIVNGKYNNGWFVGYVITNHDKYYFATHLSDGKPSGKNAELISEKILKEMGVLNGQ",
  "assay": "SPR steady-state fit, immobilized sensor domain",
  "type": "binding",
  "data": [
    {"smiles": "Cn1ncc2c(Nc3ccc(Br)cc3)nc(Nc3ccc(Br)cc3)nc21", "note": "[compound 1, N^4,N^6-bis(4-bromophenyl)-1-methyl-1H-pyrazolo[3,4-d]pyrimidine-4,6-diamine]", "values": [
      {"measurement": "Kd", "result": "31 ± 2", "unit": "µM"}
    ]}
  ]
}
